Laboratory results as given in PubChem BioAssay AID1918943 (Molecular Pharmacology Branch, DTP, NCI, 2023).
Values joined by “and” are separate entries in the source; they are usually repeats but may differ in a detail not shown here. Equal entries are not always repeated.

Tested on: 855422-203-R-J1-PDC complex spheroid viability
Experiment: Anticancer human tumor 855422-203-R-J1-PDC patient-derived bladder carcinoma cell line growth inhibition
Conditions: for viability, T/C: stronger effect = lower value
Source text: Multicellular complex tumor spheroid response to LSD1 Inhibitor Iadademstat in combination with a variety of drugs and investigational agents in selected tumor cell lines
The current study was undertaken to assess response to LSD1 inhibitors in combination with standard-of-care drugs and investigational agents in solid tumor complex spheroid models as well as in the K-562 leukemia. Complex spheroids include a stromal component modeled by human endothelial cells (HUVEC) and fibroblasts modeled by human mesenchymal stem cells (MSCs). The concentration ranges selected for each drug and investigational agent were based upon clinically achievable concentrations if the clinical Cmax of the agent was known.
Compounds. The drugs and investigational agents used in this study are listed on Table 1. All of the agents used, including staurosporine (NSC755774) and gemcitabine (NSC613327), were obtained from the Developmental Therapeutics Program, NCI. FDA-approved anticancer drugs are available from the NCI at http://dtp.nci.nih.gov/branches/dscb/oncology_drugset_explanation.html. Drugs and investigational agents were >95% pure by proton nuclear magnetic resonance (NMR) and liquid chromatography/mass spectrometry (LC/MS). Stock solutions were prepared at 400x in DMSO, stored at -70 degrees C, and diluted in fresh medium prior to their use. The final concentration of DMSO in cell culture wells never exceeded 0.25% (v/v). The FDA-approved anticancer drug set is available from the Developmental Therapeutics Program at https://dtp.cancer.gov/organization/dscb/obtaining/available_plates.htm. All drugs and investigational agents were tested over a range starting from a high concentration at or near the clinical Cmax and decreasing in half-log increments. If the clinical Cmax for an agent had not been determined, the highest concentration tested was 10 microM.
Cell Lines. The patient-derived cancer cell (PDC) lines: 292921-168-R-J2-PDC, K24384-001-R-PDC, and 521955-158-R2-J5-PDC pancreatic carcinomas, 556581-035-R-J1 ovarian carcinoma, 324938-238-R-J1-PDC, 855422-203-R-J1-PDC and 883617-216-R-J1-PDC urothelial bladder carcinomas, 743489-274-T-PDC renal cell carcinoma, 138582-R-J1 Merkel cell tumor, K60290-347-R-J1 and K57222-313-R-J1-PDC glioblastomas, 653999-131-R-J2-PDC, LG0703-F948-PDC, and 349418-098-R-PDC non-small cell lung carcinomas, 885512-296-R-J2-PDC, 171881-019-R-J1-PDC breast carcinomas and 186277-243-T-J2-PDC and 233499-124-R-J2-PDC colon carcinomas were obtained from the NCI Patient-Derived Models Repository (PDMR, https://pdmr.cancer.gov). The established cell lines NCI/ADR-RES (RRID:CVCL_14520 and OVCAR-5 (RRID:CVCL_1628) ovarian carcinomas, 786-O (RRID:CVCL_1051) and A498 (RRID:CVCL_A498) renal cell carcinoma, NCI-H211 (ATCC, cat. CRL-5824; RRID:CVCL_1529), NCI-H196 (ATCC, cat. CRL-5823, RRID:CVCL_1509), SW 1271 (ATCC, cat. CRL-2177, RRID:CVCL_1716) and NCI-H1876 (ATCC, cat. CRL-5902, RRID:CVCL_1503) small cell lung carcinomas, MDA-MB-231 (RRID:CVCL_0062) and MDA-MB-468 (RRID:CVCL_0419)breast carcinomas (10-12). Pooled donor human umbilical vein endothelial cells (HUVEC, Lonza, cat. CC-2519) and human mesenchymal stem cells (hMSC, Lonza, cat. PT-2501) were purchased from Lonza (Walkersville, MD).
Cell Culture. All cells were maintained in an incubator at 37 degrees C and 5% CO2 with 95% humidity. The PDC lines were cultured according to standard operating procedures established by the NCI PDMR (https://pdmr.cancer.gov). Briefly all PDCs were thawed and cultured in Matrigel-coated flasks prepared with a working solution of 1X Ham's F-12 nutrient mix, without supplementation (Invitrogen, Waltham, MA, cat. 11765054), 100 U/mL penicillin-streptomycin (Invitrogen, cat. 15140122), and 2.5% Matrigel (Corning Inc., Corning, NY, cat. 354248) for the first three passages. […]
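Also: drug exposure lasted 7 days starting on day 3 after seeding.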
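For viability, T/C in this document: luminescence viability as percent of DMSO vehicle wells = 100%.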

| IC50 (curve of compound) | Compound | viability, T/C (compound 0.0316 µM) | viability, T/C (compound 0.1 µM) | viability, T/C (compound 0.316 µM) | viability, T/C (compound 1 µM) | viability, T/C (compound 0.00949 µM) | viability, T/C (compound 0.03 µM) | viability, T/C (compound 0.0949 µM) | viability, T/C (compound 0.3 µM) | other results |
| --- | --- | --- | --- | --- | --- | --- | --- | --- | --- | --- |
| 4480 nM and 6680 nM | COc1ccc([C@@H](O)c2cc(-c3ncnc4cc(N5CCOCC5)ccc34)c(F)cc2Cl)nn1 | 95% and 94.1% | 94.7% and 94.4% | 79.5% and 92.2% | 74.3% and 85.5% | – | – | – | – | viability, T/C (compound 3.16 µM): 53.7% and 69.3%; viability, T/C (compound 10 µM): 38.6% and 39.6% |
| > 100 nM | Cn1ncnc1C1c2n[nH]c(=O)c3cc(F)cc(c23)NC1c1ccc(F)cc1 (stereo not given) | 89.2% and 86.2% | 81.8% and 86.8% | – | – | – | – | – | – | viability, T/C (compound 0.000316 µM): 114% and 96.5%; viability, T/C (compound 0.001 µM): 89% and 83.3%; viability, T/C (compound 0.00316 µM): 95.8% and 84.2%; viability, T/C (compound 0.01 µM): 95.8% and 73.8% |
| – | NC1CC1c1ccc(-c2cccc(O)c2)cc1 (stereo not given) | – | 84.2% | 93.7% [middle of 25 runs] | 90.2% [middle of 25 runs] | – | – | – | – | IC50 (compound alone, run of 12/07/2021): > 10000 nM |
| – | NC1CCC(NC2CC2c2ccccc2)CC1 (stereo not given) | – | 89.9% [middle of 25 runs] | 96.7% and 90.2% | 86.6% [middle of 25 runs] | – | – | – | – | viability, T/C (compound 3.16 µM): 87.7% [middle of 25 runs]; viability, T/C (compound 10 µM): 78.7% [middle of 23 runs]; IC50 (compound alone, run of 11/29/2021): > 10000 nM |
| 436 nM and 668 nM | NS(=O)(=O)OCC1CC(n2ccc3c(NC4CCc5ccccc54)ncnc32)CC1O (stereo not given) | – | – | – | – | 97.8% and 103% | 81% and 96.5% | 81.1% and 100% | 63.5% and 87.5% | viability, T/C (compound 0.949 µM): 25.4% and 33.6%; viability, T/C (compound 3 µM): 9.22% and 9.95% |
| 1510 nM and 1300 nM | Nc1ccccc1NC(=O)c1ccc(CNC(=O)OCc2cccnc2)cc1 | – | – | – | – | 92.6% and 94.4% | 100% and 97% | 106% and 105% | 90.8% and 101% | viability, T/C (compound 0.949 µM): 75.4% and 64%; viability, T/C (compound 3 µM): 13.4% and 13.2% |
| 5.5 nM and 4.42 nM | Nc1ccn(C2OC(CO)C(O)C2(F)F)c(=O)n1 (stereo not given) | – | – | – | – | 37.2% and 35.9% | 36.1% and 29.9% | 29.3% and 22% | 19.9% and 16.3% | viability, T/C (compound 0.000949 µM): 90.2% and 96.5%; viability, T/C (compound 0.003 µM): 59.8% and 55% |
| > 1000 nM | Nc1ncn(C2CC(O)C(CO)O2)c(=O)n1 (stereo not given) | 81.1% and 89% | 86.6% and 94% | 80.8% and 94.5% | 78% and 87% | – | – | – | – | viability, T/C (compound 0.00316 µM): 101% and 96.5%; viability, T/C (compound 0.01 µM): 92.3% and 88.8% |
| > 300 nM | Nc1ncn(C2CC(O)C(CO)S2)c(=O)n1 (stereo not given) | – | – | – | – | 88.5% and 95.2% | 84.7% and 98% | 82.8% and 102% | 79.9% and 83.6% | viability, T/C (compound 0.000949 µM): 106% and 93.8%; viability, T/C (compound 0.003 µM): 91.9% and 98.4% |
| 399 nM and 444 nM | O=C(C=Cc1cccc(S(=O)(=O)Nc2ccccc2)c1)NO | – | – | – | – | 90.4% and 96.6% | 104% and 108% | 82% and 112% | 64.3% and 65.9% | viability, T/C (compound 0.949 µM): 12.3% and 17.6%; viability, T/C (compound 3 µM): 0.4% and 0.43% |
| 37.5 nM and 29.4 nM | O=C(C=Cn1cnc(-c2cc(C(F)(F)F)cc(C(F)(F)F)c2)n1)NNc1cnccn1 | 52.5% and 44.8% | 43.6% and 32.7% | 38.7% and 27.1% | 25% and 18.6% | – | – | – | – | viability, T/C (compound 0.00316 µM): 124% and 114%; viability, T/C (compound 0.01 µM): 125% and 86.4% |
| > 10000 nM | O=C(c1cc(Cc2n[nH]c(=O)c3ccccc23)ccc1F)N1CCN(C(=O)C2CC2)CC1 | 88.5% and 98.6% | 94.1% and 111% | 96% and 110% | 88.8% and 98.8% | – | – | – | – | viability, T/C (compound 3.16 µM): 86.5% and 91.7%; viability, T/C (compound 10 µM): 63.3% and 76.1% |
